From publication PMC4685510, “A Cell Biologist’s Field Guide to Aurora Kinase Inhibitors” (Frontiers in Oncology, 2015)

Experiments:
Experiment in all cases: biochemical
Assay type in all cases: biochemical
[1] = target: T1, 363 human kinases (including Aurora A/B/C) (Homo sapiens, UniProt Q02156); details: PKCepsilon; for remaining activity at 0.1 µM: 100 nM; for remaining activity at 0.1 µM / remaining activity at 0.5 µM: read-out: % Enzyme Activity (relative to DMSO controls)
T1 sequence (Q02156 1-737): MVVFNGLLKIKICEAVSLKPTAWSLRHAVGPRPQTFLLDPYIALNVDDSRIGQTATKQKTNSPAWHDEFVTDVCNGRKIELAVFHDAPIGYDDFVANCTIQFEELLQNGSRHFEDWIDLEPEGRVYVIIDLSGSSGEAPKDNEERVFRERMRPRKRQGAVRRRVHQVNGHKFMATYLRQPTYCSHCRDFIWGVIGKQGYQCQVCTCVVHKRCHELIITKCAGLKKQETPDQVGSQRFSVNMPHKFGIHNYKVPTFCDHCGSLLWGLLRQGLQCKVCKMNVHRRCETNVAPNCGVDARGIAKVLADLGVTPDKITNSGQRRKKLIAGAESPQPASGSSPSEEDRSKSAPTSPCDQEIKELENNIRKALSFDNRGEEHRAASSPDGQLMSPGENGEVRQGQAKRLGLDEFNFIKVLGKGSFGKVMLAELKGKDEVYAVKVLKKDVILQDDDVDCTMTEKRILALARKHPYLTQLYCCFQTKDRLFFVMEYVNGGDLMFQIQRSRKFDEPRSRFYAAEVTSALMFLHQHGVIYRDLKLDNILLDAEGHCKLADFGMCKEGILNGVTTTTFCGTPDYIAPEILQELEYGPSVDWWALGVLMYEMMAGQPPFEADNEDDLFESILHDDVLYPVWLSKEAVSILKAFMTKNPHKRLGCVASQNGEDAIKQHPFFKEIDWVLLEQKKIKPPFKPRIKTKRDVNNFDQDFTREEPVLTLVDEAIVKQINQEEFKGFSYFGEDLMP
Text: (§1) However, the Aurora A/B selectivity ratios derived from our in vitro and in vivo data can be compared to prioritize inhibitors.

[2] = target: 363 human kinases (including Aurora A/B/C) (Homo sapiens, UniProt Q13882); details: BRK, [ATP] 100 µM; for remaining activity at 0.1 µM: 100 nM; for remaining activity at 0.1 µM / remaining activity at 0.5 µM: read-out: % Enzyme Activity (relative to DMSO controls)
363 human kinases (including Aurora A/B/C) (Homo sapiens, UniProt Q13882), sequence (Q13882 whole entry): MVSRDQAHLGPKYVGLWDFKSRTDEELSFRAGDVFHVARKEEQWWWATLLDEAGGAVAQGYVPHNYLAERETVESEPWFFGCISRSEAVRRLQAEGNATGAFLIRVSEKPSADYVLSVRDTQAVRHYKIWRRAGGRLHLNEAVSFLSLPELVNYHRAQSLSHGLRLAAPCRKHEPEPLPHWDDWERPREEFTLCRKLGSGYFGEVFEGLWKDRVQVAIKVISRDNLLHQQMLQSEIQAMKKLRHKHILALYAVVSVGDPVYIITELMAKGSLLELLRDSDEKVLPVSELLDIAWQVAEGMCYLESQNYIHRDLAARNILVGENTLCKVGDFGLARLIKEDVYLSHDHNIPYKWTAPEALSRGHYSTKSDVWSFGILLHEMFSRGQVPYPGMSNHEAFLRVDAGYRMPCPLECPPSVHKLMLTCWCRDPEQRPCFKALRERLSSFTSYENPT
Text: as §1

[3] = target: T2, 363 human kinases (including Aurora A/B/C) (Homo sapiens, UniProt O14757); details: CHK1, [ATP] 20 µM; for remaining activity at 0.1 µM: 100 nM; for remaining activity at 0.1 µM / remaining activity at 0.5 µM: read-out: % Enzyme Activity (relative to DMSO controls)
T2 sequence (O14757 1-476): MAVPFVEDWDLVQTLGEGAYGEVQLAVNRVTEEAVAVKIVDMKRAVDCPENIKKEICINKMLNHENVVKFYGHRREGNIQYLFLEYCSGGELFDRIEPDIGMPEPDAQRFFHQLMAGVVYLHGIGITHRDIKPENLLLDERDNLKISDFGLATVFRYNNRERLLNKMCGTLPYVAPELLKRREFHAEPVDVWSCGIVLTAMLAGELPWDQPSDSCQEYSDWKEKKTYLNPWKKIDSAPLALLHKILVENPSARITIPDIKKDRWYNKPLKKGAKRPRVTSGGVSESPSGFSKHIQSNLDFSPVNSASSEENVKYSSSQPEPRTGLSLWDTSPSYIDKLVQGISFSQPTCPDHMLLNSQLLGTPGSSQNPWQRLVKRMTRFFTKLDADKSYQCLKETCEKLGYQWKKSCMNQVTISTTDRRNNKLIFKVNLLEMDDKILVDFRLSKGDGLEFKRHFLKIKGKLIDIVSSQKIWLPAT
Text: as §1

[4] = target: 363 human kinases (including Aurora A/B/C) (Homo sapiens, UniProt Q8N4C8); details: MINK/MINK1; for remaining activity at 0.1 µM: 100 nM; for remaining activity at 0.1 µM / remaining activity at 0.5 µM: read-out: % Enzyme Activity (relative to DMSO controls)
363 human kinases (including Aurora A/B/C) (Homo sapiens, UniProt Q8N4C8), sequence (Q8N4C8 whole entry): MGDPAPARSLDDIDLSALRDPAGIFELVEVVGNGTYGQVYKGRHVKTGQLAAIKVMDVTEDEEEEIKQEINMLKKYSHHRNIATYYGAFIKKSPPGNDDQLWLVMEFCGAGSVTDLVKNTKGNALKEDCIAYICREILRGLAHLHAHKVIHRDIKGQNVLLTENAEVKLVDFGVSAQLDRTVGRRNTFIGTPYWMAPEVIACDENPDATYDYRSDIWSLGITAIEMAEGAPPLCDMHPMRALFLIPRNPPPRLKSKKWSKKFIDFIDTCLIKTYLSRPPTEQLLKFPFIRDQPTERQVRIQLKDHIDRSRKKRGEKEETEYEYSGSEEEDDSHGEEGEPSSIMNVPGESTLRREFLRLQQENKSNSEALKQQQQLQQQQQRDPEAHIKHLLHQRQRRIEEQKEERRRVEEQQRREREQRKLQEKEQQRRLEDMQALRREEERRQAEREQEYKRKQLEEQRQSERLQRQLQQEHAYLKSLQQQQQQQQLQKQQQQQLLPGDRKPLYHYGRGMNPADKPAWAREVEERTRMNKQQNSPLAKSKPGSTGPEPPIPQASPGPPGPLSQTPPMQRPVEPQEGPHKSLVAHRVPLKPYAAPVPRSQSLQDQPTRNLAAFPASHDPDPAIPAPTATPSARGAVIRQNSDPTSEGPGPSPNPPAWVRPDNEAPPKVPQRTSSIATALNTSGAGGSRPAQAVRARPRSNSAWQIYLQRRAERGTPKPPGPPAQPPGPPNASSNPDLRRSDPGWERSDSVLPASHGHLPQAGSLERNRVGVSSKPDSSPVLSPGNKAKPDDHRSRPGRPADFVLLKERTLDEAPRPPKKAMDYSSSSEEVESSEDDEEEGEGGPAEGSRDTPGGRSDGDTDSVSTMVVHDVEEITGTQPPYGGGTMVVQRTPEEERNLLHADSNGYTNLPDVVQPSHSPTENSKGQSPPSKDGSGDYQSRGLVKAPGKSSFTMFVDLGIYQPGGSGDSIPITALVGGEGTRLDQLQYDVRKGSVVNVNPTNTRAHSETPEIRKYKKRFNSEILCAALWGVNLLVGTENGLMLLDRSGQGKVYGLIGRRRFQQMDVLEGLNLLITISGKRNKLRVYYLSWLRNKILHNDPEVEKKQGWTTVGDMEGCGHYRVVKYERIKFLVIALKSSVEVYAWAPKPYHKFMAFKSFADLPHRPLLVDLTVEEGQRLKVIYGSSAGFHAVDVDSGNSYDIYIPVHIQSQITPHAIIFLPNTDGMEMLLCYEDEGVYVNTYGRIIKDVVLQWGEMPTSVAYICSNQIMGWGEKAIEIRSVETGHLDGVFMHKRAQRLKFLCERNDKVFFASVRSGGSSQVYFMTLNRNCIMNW
Text: as §1

[5] = target: 363 human kinases (including Aurora A/B/C) (Homo sapiens, UniProt P36894); details: ALK3/BMPR1A, [ATP] 1 µM; for remaining activity at 0.1 µM: 100 nM; for remaining activity at 0.1 µM / remaining activity at 0.5 µM: read-out: % Enzyme Activity (relative to DMSO controls)
363 human kinases (including Aurora A/B/C) (Homo sapiens, UniProt P36894), sequence (P36894 24-532): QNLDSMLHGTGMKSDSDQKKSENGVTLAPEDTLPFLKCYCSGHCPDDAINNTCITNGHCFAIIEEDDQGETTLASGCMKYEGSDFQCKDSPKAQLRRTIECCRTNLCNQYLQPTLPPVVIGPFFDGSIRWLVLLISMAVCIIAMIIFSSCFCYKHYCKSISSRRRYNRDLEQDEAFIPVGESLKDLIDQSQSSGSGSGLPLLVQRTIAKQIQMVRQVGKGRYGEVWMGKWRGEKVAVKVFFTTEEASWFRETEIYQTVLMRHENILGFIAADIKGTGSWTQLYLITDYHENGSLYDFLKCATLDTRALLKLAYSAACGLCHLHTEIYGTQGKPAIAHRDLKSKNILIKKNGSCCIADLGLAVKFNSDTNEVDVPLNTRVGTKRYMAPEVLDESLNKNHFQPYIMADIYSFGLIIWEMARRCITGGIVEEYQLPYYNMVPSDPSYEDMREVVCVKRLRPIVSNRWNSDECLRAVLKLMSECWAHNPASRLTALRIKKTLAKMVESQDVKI
Text: as §1

[6] = target: 363 human kinases (including Aurora A/B/C) (Homo sapiens, UniProt P51451); details: BLK, [ATP] 10 µM; for remaining activity at 0.1 µM: 100 nM; for remaining activity at 0.1 µM / remaining activity at 0.5 µM: read-out: % Enzyme Activity (relative to DMSO controls)
363 human kinases (including Aurora A/B/C) (Homo sapiens, UniProt P51451), sequence (P51451 whole entry): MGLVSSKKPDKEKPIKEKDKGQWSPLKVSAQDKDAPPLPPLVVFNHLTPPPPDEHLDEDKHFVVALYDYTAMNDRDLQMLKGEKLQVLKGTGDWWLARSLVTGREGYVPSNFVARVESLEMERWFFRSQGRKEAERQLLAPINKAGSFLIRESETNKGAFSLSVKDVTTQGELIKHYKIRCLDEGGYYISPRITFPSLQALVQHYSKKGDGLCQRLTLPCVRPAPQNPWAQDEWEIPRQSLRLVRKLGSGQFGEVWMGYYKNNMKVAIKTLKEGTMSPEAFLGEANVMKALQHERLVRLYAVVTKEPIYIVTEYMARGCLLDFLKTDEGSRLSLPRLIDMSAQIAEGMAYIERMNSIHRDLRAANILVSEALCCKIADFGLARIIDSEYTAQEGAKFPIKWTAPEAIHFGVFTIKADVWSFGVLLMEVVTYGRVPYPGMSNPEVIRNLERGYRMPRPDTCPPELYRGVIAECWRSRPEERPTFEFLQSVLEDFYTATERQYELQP
Text: as §1

[7] = target: T3, 363 human kinases (including Aurora A/B/C) (Homo sapiens, UniProt Q9UKI8); details: TLK1; for remaining activity at 0.1 µM: 100 nM; for remaining activity at 0.1 µM / remaining activity at 0.5 µM: read-out: % Enzyme Activity (relative to DMSO controls)
T3 sequence (Q9UKI8 1-766): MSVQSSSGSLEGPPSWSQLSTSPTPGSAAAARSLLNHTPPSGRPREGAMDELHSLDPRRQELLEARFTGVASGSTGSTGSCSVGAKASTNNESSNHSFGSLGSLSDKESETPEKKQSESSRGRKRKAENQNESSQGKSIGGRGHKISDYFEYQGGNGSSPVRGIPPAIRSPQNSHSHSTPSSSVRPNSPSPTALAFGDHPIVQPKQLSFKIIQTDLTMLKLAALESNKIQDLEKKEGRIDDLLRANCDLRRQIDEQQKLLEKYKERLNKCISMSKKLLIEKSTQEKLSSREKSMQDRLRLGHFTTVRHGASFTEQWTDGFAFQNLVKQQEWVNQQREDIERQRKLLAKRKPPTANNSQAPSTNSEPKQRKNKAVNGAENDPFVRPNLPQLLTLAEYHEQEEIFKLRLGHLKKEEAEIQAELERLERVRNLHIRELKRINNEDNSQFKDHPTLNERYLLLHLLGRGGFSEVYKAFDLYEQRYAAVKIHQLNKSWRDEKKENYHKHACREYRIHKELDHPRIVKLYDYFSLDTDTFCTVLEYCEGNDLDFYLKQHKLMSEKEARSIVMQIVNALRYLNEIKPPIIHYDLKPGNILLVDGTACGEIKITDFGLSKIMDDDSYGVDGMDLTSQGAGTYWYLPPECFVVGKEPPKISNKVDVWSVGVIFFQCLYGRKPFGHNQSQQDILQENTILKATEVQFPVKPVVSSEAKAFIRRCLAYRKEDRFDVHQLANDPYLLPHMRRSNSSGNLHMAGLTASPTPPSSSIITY
Text: as §1

[8] = target: 363 human kinases (including Aurora A/B/C) (Homo sapiens, UniProt O43353); details: RIPK2; for remaining activity at 0.1 µM: 100 nM; for remaining activity at 0.1 µM / remaining activity at 0.5 µM: read-out: % Enzyme Activity (relative to DMSO controls)
Text: as §1

[9] = target: 363 human kinases (including Aurora A/B/C) (Homo sapiens, UniProt O94804); details: LOK/STK10; for remaining activity at 0.1 µM: 100 nM; for remaining activity at 0.1 µM / remaining activity at 0.5 µM: read-out: % Enzyme Activity (relative to DMSO controls)
363 human kinases (including Aurora A/B/C) (Homo sapiens, UniProt O94804), sequence (O94804 whole entry): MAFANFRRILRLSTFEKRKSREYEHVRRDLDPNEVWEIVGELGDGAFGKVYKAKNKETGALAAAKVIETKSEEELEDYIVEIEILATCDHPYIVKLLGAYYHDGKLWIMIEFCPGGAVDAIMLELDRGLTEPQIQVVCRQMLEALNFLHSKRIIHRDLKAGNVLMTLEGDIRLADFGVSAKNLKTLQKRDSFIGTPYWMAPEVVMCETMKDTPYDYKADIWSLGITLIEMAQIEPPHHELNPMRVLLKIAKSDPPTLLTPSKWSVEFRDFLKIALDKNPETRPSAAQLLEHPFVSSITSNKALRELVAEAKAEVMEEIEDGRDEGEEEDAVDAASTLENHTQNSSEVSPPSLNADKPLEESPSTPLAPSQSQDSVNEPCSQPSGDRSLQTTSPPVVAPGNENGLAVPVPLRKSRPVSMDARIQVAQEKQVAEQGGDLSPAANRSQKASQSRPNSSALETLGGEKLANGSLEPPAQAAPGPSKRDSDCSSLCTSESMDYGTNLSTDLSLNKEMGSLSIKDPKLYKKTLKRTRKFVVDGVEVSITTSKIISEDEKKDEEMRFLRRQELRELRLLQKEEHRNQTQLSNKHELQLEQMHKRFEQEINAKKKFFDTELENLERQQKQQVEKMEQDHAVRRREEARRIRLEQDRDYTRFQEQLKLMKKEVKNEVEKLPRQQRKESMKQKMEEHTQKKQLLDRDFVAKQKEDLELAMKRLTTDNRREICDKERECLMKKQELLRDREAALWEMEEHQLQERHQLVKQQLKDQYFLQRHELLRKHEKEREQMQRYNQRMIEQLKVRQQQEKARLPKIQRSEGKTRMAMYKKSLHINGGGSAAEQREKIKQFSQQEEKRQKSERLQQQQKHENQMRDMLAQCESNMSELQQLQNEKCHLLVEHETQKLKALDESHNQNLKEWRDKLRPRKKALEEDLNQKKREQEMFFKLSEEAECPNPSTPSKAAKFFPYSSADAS
Text: as §1

[10] = target: 363 human kinases (including Aurora A/B/C) (Homo sapiens, UniProt P19784); details: CK2a2, [ATP] 30 µM; for remaining activity at 0.1 µM: 100 nM; for remaining activity at 0.1 µM / remaining activity at 0.5 µM: read-out: % Enzyme Activity (relative to DMSO controls)
Text: as §1

[11] = target: 363 human kinases (including Aurora A/B/C) (Homo sapiens, UniProt P00533); details: EGFR, [ATP] 1 µM; for remaining activity at 0.1 µM: 100 nM; for remaining activity at 0.1 µM / remaining activity at 0.5 µM: read-out: % Enzyme Activity (relative to DMSO controls)
363 human kinases (including Aurora A/B/C) (Homo sapiens, UniProt P00533), sequence (P00533 25-1210): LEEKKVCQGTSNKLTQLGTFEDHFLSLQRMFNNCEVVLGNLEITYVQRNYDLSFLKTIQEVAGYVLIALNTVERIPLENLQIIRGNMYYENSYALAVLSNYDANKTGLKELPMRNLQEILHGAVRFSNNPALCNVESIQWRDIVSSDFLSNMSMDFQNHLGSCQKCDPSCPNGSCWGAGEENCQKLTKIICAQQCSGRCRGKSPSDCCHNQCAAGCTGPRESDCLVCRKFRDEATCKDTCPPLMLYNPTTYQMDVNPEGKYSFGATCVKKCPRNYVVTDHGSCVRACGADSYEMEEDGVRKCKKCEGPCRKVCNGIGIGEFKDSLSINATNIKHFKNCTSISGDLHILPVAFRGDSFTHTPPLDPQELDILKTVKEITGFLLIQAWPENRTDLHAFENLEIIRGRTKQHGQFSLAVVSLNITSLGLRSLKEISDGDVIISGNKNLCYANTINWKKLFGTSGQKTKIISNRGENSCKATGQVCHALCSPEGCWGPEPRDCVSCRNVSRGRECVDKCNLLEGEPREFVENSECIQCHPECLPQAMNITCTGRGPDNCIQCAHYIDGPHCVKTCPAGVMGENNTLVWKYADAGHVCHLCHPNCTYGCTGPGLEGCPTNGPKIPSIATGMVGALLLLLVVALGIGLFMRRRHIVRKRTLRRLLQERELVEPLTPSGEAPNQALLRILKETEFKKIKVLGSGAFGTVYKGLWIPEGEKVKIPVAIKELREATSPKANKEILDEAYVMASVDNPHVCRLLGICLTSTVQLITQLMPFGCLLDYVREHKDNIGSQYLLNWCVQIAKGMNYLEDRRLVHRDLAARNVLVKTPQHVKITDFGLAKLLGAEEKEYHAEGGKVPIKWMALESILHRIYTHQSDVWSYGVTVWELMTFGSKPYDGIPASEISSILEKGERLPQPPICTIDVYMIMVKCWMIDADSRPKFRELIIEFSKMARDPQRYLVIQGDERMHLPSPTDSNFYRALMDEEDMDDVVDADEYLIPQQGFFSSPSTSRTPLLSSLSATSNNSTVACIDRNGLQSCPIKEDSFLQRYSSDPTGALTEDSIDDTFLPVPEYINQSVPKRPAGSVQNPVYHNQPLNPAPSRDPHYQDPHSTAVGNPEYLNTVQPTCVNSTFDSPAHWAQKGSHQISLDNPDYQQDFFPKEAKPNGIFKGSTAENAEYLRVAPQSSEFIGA
Text: as §1

CCn1cc(-c2ccnc3[nH]c(-c4cccc(CN(C)C)c4)cc23)c(-c2ccc(NC(=O)N(C)C)cc2)n1 [GSK1070916] showed a remaining activity at 0.1 µM [1] of 102%, a remaining activity at 0.1 µM [2] of 76.6% and a remaining activity at 0.1 µM [3] of 98.7%. The remaining activity at 0.1 µM [4] was 78.3%, the remaining activity at 0.1 µM [5] was 87.6% and the remaining activity at 0.1 µM [6] was 85%. For the same compound, the remaining activity at 0.1 µM [7] was 120%, the remaining activity at 0.1 µM [8] was 116% and the remaining activity at 0.1 µM [9] was 73.2%. It also gave a remaining activity at 0.1 µM [10] of 89.1% and a remaining activity at 0.1 µM [11] of 54.6%.

O=C(O)[C@]1(Cc2cccc(Nc3nccs3)n2)CC[C@@H](Oc2cccc(Cl)c2F)CC1 [MK-5108] showed a remaining activity at 0.1 µM [1] of 111%, a remaining activity at 0.5 µM ([1]; 500 nM) of 101% and a remaining activity at 0.1 µM [2] of 20.2%. It also gave a remaining activity at 0.5 µM ([2]; 500 nM) of 3.11%, a remaining activity at 0.1 µM [3] of 103% and a remaining activity at 0.5 µM ([3]; 500 nM) of 148%. The remaining activity at 0.1 µM [4] was 80%, the remaining activity at 0.5 µM ([4]; 500 nM) was 53.4% and the remaining activity at 0.1 µM [5] was 64.3%. It also gave a remaining activity at 0.5 µM ([5]; 500 nM) of 49.6%, a remaining activity at 0.1 µM [6] of 54.8% and a remaining activity at 0.5 µM ([6]; 500 nM) of 17.1%. For the same compound, the remaining activity at 0.1 µM [7] was 95.7%, the remaining activity at 0.5 µM ([7]; 500 nM) was 116% and the remaining activity at 0.1 µM [8] was 89.1%. It also gave a remaining activity at 0.5 µM ([8]; 500 nM) of 60%, a remaining activity at 0.1 µM [9] of 34% and a remaining activity at 0.5 µM ([9]; 500 nM) of 10.3%. The remaining activity at 0.1 µM [10] was 87.2%, the remaining activity at 0.5 µM ([10]; 500 nM) was 86.5% and the remaining activity at 0.1 µM [11] was 67.3%. It also gave a remaining activity at 0.5 µM ([11]; 500 nM) of 33.9%.

O=C(c1cccc(Cl)c1F)N1CCN(Cc2cccc(Nc3nccs3)n2)CC1 [MK-8745] was tested, and the “% Enzyme Activity (relative to DMSO controls)” value ([1]; 500 nM) was 120.37%, the remaining activity at 0.5 µM ([1]; 500 nM) was 120% and the “% Enzyme Activity (relative to DMSO controls)” value ([2]; 500 nM) was 29.01%. For the same compound, the remaining activity at 0.5 µM ([2]; 500 nM) was 29%, the “% Enzyme Activity (relative to DMSO controls)” value ([3]; 500 nM) was 104.15% and the remaining activity at 0.5 µM ([3]; 500 nM) was 105%. The “% Enzyme Activity (relative to DMSO controls)” value ([4]; 500 nM) was 82.81%, the remaining activity at 0.5 µM ([4]; 500 nM) was 86.8% and the “% Enzyme Activity (relative to DMSO controls)” value ([5]; 500 nM) was 83.31%. For the same compound, the remaining activity at 0.5 µM ([5]; 500 nM) was 84.6%, the “% Enzyme Activity (relative to DMSO controls)” value ([6]; 500 nM) was 72.45% and the remaining activity at 0.5 µM ([6]; 500 nM) was 72.7%. For the same compound, the “% Enzyme Activity (relative to DMSO controls)” value ([7]; 500 nM) was 119.91%, the remaining activity at 0.5 µM ([7]; 500 nM) was 125% and the “% Enzyme Activity (relative to DMSO controls)” value ([8]; 500 nM) was 82.53%. The remaining activity at 0.5 µM ([8]; 500 nM) was 89.3%, the “% Enzyme Activity (relative to DMSO controls)” value ([9]; 500 nM) was 49.80% and the remaining activity at 0.5 µM ([9]; 500 nM) was 52.1%. For the same compound, the “% Enzyme Activity (relative to DMSO controls)” value ([10]; 500 nM) was 85.44%, the remaining activity at 0.5 µM ([10]; 500 nM) was 85.8% and the “% Enzyme Activity (relative to DMSO controls)” value ([11]; 500 nM) was 97.09%. For the same compound, the remaining activity at 0.5 µM ([11]; 500 nM) was 99.1%.
